This note sets out measurements from patent US20120149657A1, “2'-FLUORO ARABINO NUCLEOSIDES AND USE THEREOF” (Southern Research Institute, priority 2009, published 2012).

Marks after values point to notes of the source that are not given here.

One series deals with CCRF-CEM leukemia. Briefly: In vitro cytotoxicity (MTS, 72 h), CCRF-CEM. Format: cell-based, human. The conditions noted are these: for IC50: Homo sapiens, CCRF-CEM, 72 hours of incubation. On the procedure:
(§1) The concentration of compound required to inhibit cell growth by 50% (IC50) after 72 hours of incubation was determined for each unprotected analog with eight human tumor cell lines (SNB-7 CNS, DLD-1 colon, CCRF-CEM leukemia, NCI-H23 NSCL, ZR-75-1 breast, LOX melanoma, PC-3 prostate, and CAKI-1 renal). […] The α-anomers of these compounds were also screened but were not found to be cytotoxic (data not shown).
(§2) CCRF-CEM cells are a T-cell leukemia cell line that is known to be very sensitive to nucleoside analogs.
(§3) All cell lines were grown in RPMI 1640 medium containing 10% fetal bovine serum, sodium bicarbonate, and 2 mM L-glutamine. For in vitro evaluation of the sensitivity of these cell lines to compounds, cells were plated in 96-well microtiter plates and then were exposed continuously to various concentrations of the compounds for 72 h at 37° C. Cell viability was measured using the MTS assay [3-(4,5-dimethylthiazol-2-yl)-5-(3-carboxymethoxyphenyl)-2-(4-sulfophenyl)-2H-tetrazolium, inner salt; MTS and an electron coupling reagent (phenazine ethosulfate; PES)]. Absorbance was read at 490 nm. The background absorbance mean was subtracted from the data followed by conversion to percent of control. The drug concentrations producing survival just above and below 50% level were used in a linear regression analysis to calculate the IC50.

For series [1], the system named is cells that lacked dCyd kinase. Put plainly: Cytotoxicity in cells that lacked dCyd kinase. Format: cell-based.
Description: as §2

For a further series, the system named is CCRF-CEM cells. Put plainly: Intracellular triphosphate in CCRF-CEM cells. Format: cell-based, human. On the procedure:
CCRF-CEM cells were incubated with methyl-F-araC, araC, and gemcitabine, and the amount of intracellular triphosphate (TP) of each compound was determined.
CCRF-CEM cell extracts were collected by centrifugation and resuspended in ice-cold 0.5 M perchloric acid. The samples were centrifuged at 12,000×g, and the supernatant fluid was neutralized and buffered by adding 4 M KOH and 1 M potassium phosphate, pH 7.4. KClO4 was removed by centrifugation, and a portion of the supernatant fluid was injected onto a strong anion exchange HPLC (Bio Basic anion exchange column, Thermo Electron Corp., Bellefonte, Pa.). Nucleotides were eluted with a 30-min linear salt and pH gradient from 6 mM ammonium phosphate (pH 2.8) to 900 mM ammonium phosphate (pH 6). Peaks were detected as they eluted from the column by their absorbance at 254 nm.

Another series deals with SNB-7 CNS. Put plainly: In vitro cytotoxicity (MTS, 72 h), SNB-7. The conditions noted are these: Homo sapiens; SNB-7, 72 hours of incubation. Format: cell-based. On the procedure: as §1, §3
For another series, the system named is DLD-1 colon. Briefly: In vitro cytotoxicity (MTS, 72 h), DLD-1. Format: cell-based. The conditions noted are these: Homo sapiens; DLD-1, 72 hours of incubation. On the procedure:
as §1, §3

For series [2], the system named is NCI-H23 NSCL. Briefly: In vitro cytotoxicity (MTS, 72 h), NCI-H23. Format: cell-based. To be noted: Homo sapiens; NCI-H23, 72 hours of incubation. On the procedure:
as §1, §3

The test system of the next series is ZR-75-1 breast. Put plainly: In vitro cytotoxicity (MTS, 72 h), ZR-75-1. Format: cell-based. To be noted: Homo sapiens; ZR-75-1, 72 hours of incubation. On the procedure: as §1, §3
The subject of series [3] is LOX melanoma. Put plainly: In vitro cytotoxicity (MTS, 72 h), LOX. Format: cell-based. The conditions noted are these: Homo sapiens, 72 hours of incubation. On the procedure: as §1, §3
A further series deals with PC-3 prostate. Put plainly: In vitro cytotoxicity (MTS, 72 h), PC-3. Format: cell-based. The conditions noted are these: Homo sapiens; PC-3, 72 hours of incubation. On the procedure:
as §1, §3

Series [4] concerns CAKI-1 renal. Put plainly: In vitro cytotoxicity (MTS, 72 h), CAKI-1. Format: cell-based. The conditions noted are these: Homo sapiens; CAKI-1, 72 hours of incubation. On the procedure: as §1, §3
The test system of series [5] is eight human tumor cell lines. Put plainly: In vitro cytotoxicity, panel of eight human tumor cell lines. Format: cell-based. On the procedure:
as §1, §3

A further series in a line: Maximally tolerated dose. Format: in vivo, mice. The conditions noted are these: once per day for 9 consecutive days. On the procedure:
(§4) Because of its potent in vitro activity, methyl-F-araC (13) was evaluated for in vivo activity against three solid tumor xenografts (CAKI-1 renal, NCI-H23 NSCL, and LOX melanoma). Prior to these studies the maximally tolerated dose of methyl-F-araC was determined to be 3 mg/kg given once per day for 9 consecutive days. […] Female NCr-nu athymic mice were implanted subcutaneously with CAKI-1 tumor fragments. When tumors were approximately 100-250 mg, mice were treated ip with methyl-F-araC at 1, 2, or 3 mg/kg/dose (1 treatment each day for 9 consecutive days starting on day 14). Each treatment group contained 6 mice. The tumors were measured with calipers twice each week, and the weight (mg) was calculated. In this experiment there were 3 of 6 tumor-free survivors at the end of the experiment (62 days post implant) in each treatment group. Good results were also seen against NCI-H23 and LOX human tumor xenografts (Table 2).

Series [6] has as its system CAKI-1 renal. Put plainly: CAKI-1 renal tumor xenograft, sc, in nude mice. Format: in vivo, female NCr-nu athymic mice. On the procedure:
as §4
(§5) Xenografts were implanted sc on the flanks of female nude mice. When tumors were approximately 100-250 mg, they were treated ip with 3 or 4 mg/kg/dose of methyl-F-araC (q1d×9) and tumor size was measured twice weekly thereafter. Tumor-free survivors are the number of mice that were tumor-free at the end of the experiment/total number of mice in the treatment group. ^aThe difference in the median of times poststaging for tumors of the treated (T) and control (C) groups to double in mass three times. ^bThe difference in the median of times poststaging for tumors of the treated (T) and control (C) groups to double in mass two times. ^cThe difference in the median of times poststaging for tumors of the treated (T) and control (C) groups to double in mass four times.
Mice, obtained from various commercial suppliers, were housed in microisolator cages and were allowed commercial mouse food and water ad libitum. The three human tumors were obtained from the Developmental Therapeutics Program Tumor Repository (Frederick, Md.) and were maintained in in vivo passage. Only tumor lines that tested negative for selected viruses were used. For the in vivo evaluation of the sensitivity of human tumors to the compounds, female NCr-nu athymic mice were implanted subcutaneously (sc) with 30-40 mg tumor fragments. In each experiment, methyl-F-araC (13) was tested at three dosage levels. […]
(§6) Antitumor activity was assessed on the basis of delay in tumor growth (T-C). […] Tumors were measured in two dimensions (length and width) twice weekly, and the tumor weight was calculated using the formula (length×width^2)/2 and assuming unit density. […]

Series [7] has as its system NCI-H23 NSCL. Put plainly: NCI-H23 NSCL tumor xenograft, sc, in nude mice. Format: in vivo, female NCr-nu athymic mice. On the procedure: as §4, §5
(§7) Mice, obtained from various commercial suppliers, were housed in microisolator cages and were allowed commercial mouse food and water ad libitum. […]
as §6

Series [8] has as its system LOX melanoma. Briefly: LOX melanoma tumor xenograft, sc, in nude mice. Format: in vivo, female NCr-nu athymic mice. On the procedure:
as §4, §5, §7, §6

The mark [9] stands for this setting: 3 mg/kg/dose ip q1d×9, tumor-free/total at end of experiment.

What is called melting point is the temperature, or range, at which the solid turns liquid. Turning to `C[C@]1(CO)O[C@@H](n2cnc3c(N)nc(N)nc32)[C@@H](F)[C@@H]1O` [Compound 21, 2,6-Diamino-9-(2-deoxy-2-fluoro-4-C-methyl-β-D-arabinofuranosyl)purine], the melting point was 270 °C (dec.). Also, the IC50 in the series with CCRF-CEM leukemia was approximately 500 nM. Further, in the series with CCRF-CEM leukemia (deoxycoformycin (adenosine deaminase inhibitor) added), the “cytotoxicity with addition of deoxycoformycin” value is “prevented”.

For the molecule `C[C@]1(CO)O[C@@H](n2cnc3c(=O)[nH]c(N)nc32)[C@@H](F)[C@@H]1O` [Compound 22, 9-(2-Deoxy-2-fluoro-4-C-methyl-β-D-arabinofuranosyl)guanine], the IC50 with CCRF-CEM leukemia was approximately 500 nM.

In the case of `C[C@]1(CO)O[C@@H](n2cnc3c(N)nc(Cl)nc32)[C@@H](F)[C@@H]1O` [Compound 24, 2-Chloro-9-(2-deoxy-2-fluoro-4-C-methyl-β-D-arabinofuranosyl)adenine], in the series with CCRF-CEM leukemia, the IC50 was approximately 500 nM and the “inhibition of CCRF-CEM cell growth with dCyd added to the culture medium” value is recorded as “prevented”. For the same molecule, in [1], the “activity in cells that lacked dCyd kinase” value is given as “neither compound was active”.

In the case of `Nc1ccn([C@@H]2O[C@H](CO)[C@@H](O)[C@@H]2O)c(=O)n1` [araC], the “intracellular concentration of triphosphate” value (“intracellular concentration” below) in the series on CCRF-CEM cells (100 nM of compound, two hours, mean±SD, N=3) was 12±1 pmoles/10^6 cells. Also, the “intracellular half-life of triphosphate” value in the series with CCRF-CEM cells (CCRF-CEM cells, N=2) is 5.6 h.

In the case of `Nc1ccn([C@@H]2O[C@H](CO)[C@@H](O)C2(F)F)c(=O)n1` [gemcitabine], the “intracellular concentration” value in the series on CCRF-CEM cells (human, 2 h, 100 nM) is listed as 17±3 pmoles/10^6 cells.

Regarding `C[C@]1(CO)O[C@@H](n2ccc(N)nc2=O)[C@@H](F)[C@@H]1O` [methyl-F-araC, 1-(2-Deoxy-2-fluoro-4-C-methyl-β-D-arabinofuranosyl)cytosine], the IC50 is more than 200000 nM with SNB-7 CNS; more than 200000 nM with DLD-1 colon; 12 ± 3 nM in the series on CCRF-CEM leukemia; 190 ± 10 nM in the series with NCI-H23 NSCL [2]; more than 200000 nM with ZR-75-1 breast; 240 ± 150 nM with LOX melanoma [3]. Moreover, the IC50 in the series on PC-3 prostate was more than 200000 nM; in the series with CAKI-1 renal [4], 540 ± 580 nM. Moreover, the “inhibition of CCRF-CEM cell growth with dCyd added to the culture medium” value in the series on CCRF-CEM leukemia is recorded as “prevented”. Besides, in [5], the “cytotoxicity (in words)” value is “significant cytotoxicity against four of the cell lines”. Moreover, the “activity in cells that lacked dCyd kinase” value in series [1] was “neither compound was active”. Also, the “intracellular concentration” value in the series with CCRF-CEM cells (human, 2 h, 100 nM) is 16±2 pmoles/10^6 cells. The maximally tolerated dose in “Maximally tolerated dose” came out at 3 mg/kg. For the same molecule, the “T-C (days)” value with CAKI-1 renal [6] (3 mg/kg/dose ip q1d×9, time to double in mass three times) is >34.6^a days; in the series on NCI-H23 NSCL [7] (4 mg/kg/dose ip q1d×9, time to double in mass two times), 18.4^b days; in the series on LOX melanoma [8] (3 mg/kg/dose ip q1d×9, time to double in mass four times), 15.0^c days. Also, the Tumor-free survivors in the series on CAKI-1 renal [6] (setting [9]) was 3/6; in the series with NCI-H23 NSCL [7] (4 mg/kg/dose ip q1d×9, tumor-free/total at end of experiment), 0/5; with LOX melanoma [8] (setting [9]), 0/6. The “tumor-free survivors in each treatment group” value in the series on CAKI-1 renal [6] (1, 2, or 3 mg/kg/dose ip, 9 days from day 14, 62 days post implant) is reported as 3 of 6. For the same molecule, the “in vivo activity (in words)” value is “excellent activity” in the series with CAKI-1 renal [6] (CAKI-1 tumors, FIG. 1); “Good results” in the series with NCI-H23 NSCL [7] (NCI-H23 xenograft); “Good results” in the series with LOX melanoma [8] (LOX xenograft).
